The record followed here is article PMC12297698 (Scientific Reports, 2025).

The target in this test is T1, Caspase-3 (Recombinant human Caspase-3 protein (Active)) (Homo sapiens, UniProt P42574).
T1 sequence (P42574 29-175): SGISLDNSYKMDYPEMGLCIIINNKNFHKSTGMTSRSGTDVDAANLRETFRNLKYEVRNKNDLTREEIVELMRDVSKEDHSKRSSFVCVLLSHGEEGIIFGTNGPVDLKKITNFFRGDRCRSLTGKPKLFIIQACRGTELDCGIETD
T1 sequence (P42574 176-277): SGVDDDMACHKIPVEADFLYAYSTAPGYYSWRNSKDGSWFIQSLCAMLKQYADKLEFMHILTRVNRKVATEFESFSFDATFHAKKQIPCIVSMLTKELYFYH
As to the kind of experiment: SPR, Biacore T200, CM5 chip, immobilised caspase-3. The test is classed as binding.

On to `OC[C@H]1O[C@@H](OCCc2ccc(O)cc2)[C@H](O)[C@@H](O)[C@@H]1O` [Salidroside], for which the Kd was 76.7 µM.
